For eight compounds, mutagenic call results are on record in PubChem BioAssay AID1259407 (Chemical Carcinogenesis Research Information System (CCRIS), 2018).

Molecules are shown by their SMILES. The source made the active and inactive calls. How the calls were made is not given here.

The test system of this series is CCRIS mutagenicity, Ames/micronucleus/aberration tests. Briefly: CCRIS mutagenicity studies.
Where [1] appears, read: Test System: AMES SALMONELLA TYPHIMURIUM, Strain/Indicator: TA98, Metabolic Activation: NONE, Method: STANDARD PLATE.
[2] abbreviates: Test System: AMES SALMONELLA TYPHIMURIUM, Strain/Indicator: TA100, Metabolic Activation: NONE, Method: STANDARD PLATE.
The mark [3] stands for this setting: Test System: AMES SALMONELLA TYPHIMURIUM, Strain/Indicator: TA1535, Metabolic Activation: NONE, Method: STANDARD PLATE.
Setting [4] is: Test System: AMES SALMONELLA TYPHIMURIUM, Strain/Indicator: TA1537, Metabolic Activation: NONE, Method: STANDARD PLATE.
Where [5] appears, read: Test System: AMES SALMONELLA TYPHIMURIUM, Strain/Indicator: TA1538, Metabolic Activation: NONE, Method: STANDARD PLATE.
Setting [6] is: Test System: E. COLI, Strain/Indicator: WP2, Metabolic Activation: NONE, Method: STANDARD PLATE.
Setting [7] is: Test System: AMES SALMONELLA TYPHIMURIUM, Strain/Indicator: TA98, Metabolic Activation: NONE, Method: PREINCUBATION
Setting [8] is: Test System: AMES SALMONELLA TYPHIMURIUM, Strain/Indicator: TA100, Metabolic Activation: NONE, Method: PREINCUBATION
[9] abbreviates: Test System: AMES SALMONELLA TYPHIMURIUM, Strain/Indicator: TA1535, Metabolic Activation: NONE, Method: PREINCUBATION
The mark [10] stands for this setting: Test System: AMES SALMONELLA TYPHIMURIUM, Strain/Indicator: TA1537, Metabolic Activation: NONE, Method: PREINCUBATION
The mark [11] stands for this setting: Test System: AMES SALMONELLA TYPHIMURIUM, Strain/Indicator: TA1538, Metabolic Activation: NONE, Method: PREINCUBATION

`O=[Si]=O`: the mutagenic call was “inactive; negative” under setting [1]; “inactive; negative” (Test System: AMES SALMONELLA TYPHIMURIUM, Strain/Indicator: TA98, Metabolic Activation: RAT, LIVER, S-9, AROCLOR 1254, Method: STANDARD PLATE); “inactive; negative” under setting [2]; “inactive; negative” (Test System: AMES SALMONELLA TYPHIMURIUM, Strain/Indicator: TA100, Metabolic Activation: RAT, LIVER, S-9, AROCLOR 1254, Method: STANDARD PLATE); “inactive; negative” under setting [3]; “inactive; negative” (Test System: AMES SALMONELLA TYPHIMURIUM, Strain/Indicator: TA1535, Metabolic Activation: RAT, LIVER, S-9, AROCLOR 1254, Method: STANDARD PLATE). In addition, the mutagenic call runs as follows: under setting [4], “inactive; negative”; (Test System: AMES SALMONELLA TYPHIMURIUM, Strain/Indicator: TA1537, Metabolic Activation: RAT, LIVER, S-9, AROCLOR 1254, Method: STANDARD PLATE) “inactive; negative”; under setting [5], “inactive; negative”; (Test System: AMES SALMONELLA TYPHIMURIUM, Strain/Indicator: TA1538, Metabolic Activation: RAT, LIVER, S-9, AROCLOR 1254, Method: STANDARD PLATE) “inactive; negative”; under setting [6], “inactive; negative”; (Test System: E. COLI, Strain/Indicator: WP2, Metabolic Activation: RAT, LIVER, S-9, AROCLOR 1254, Method: STANDARD PLATE) “inactive; negative”. For the same compound, the mutagenic call (Test System: HUMAN-HAMSTER HYBRID AL CELLS, Strain/Indicator: AL CELLS (HPRT), Metabolic Activation: NONE, Method: PREINCUBATION) was “active; positive”.

In the case of `O=C(O)[C@H]1OC(Oc2c3ccccc3c3ccc4cccc5ccc2c3c54)[C@H](O)[C@@H](O)[C@@H]1O` (some centres not stated), the mutagenic call runs as follows: under setting [7], “inactive; negative”; (Test System: AMES SALMONELLA TYPHIMURIUM, Strain/Indicator: TA98, Metabolic Activation: RAT, LUNG, S-9, Method: PREINCUBATION) “inactive; negative”.

Regarding `C=CC[C@]1(O)CC[C@H]2[C@@H]3CCC4=CCCC[C@@H]4[C@H]3CC[C@@]21C`, under “End Point: IN VIVO MICRONUCLEUS, Test System: HEPATOCYTES, Species: RAT, Strain/Sex: SPRAGUE-DAWLEY/FEMALE, Route: INTRAGASTRIC (GAVAGE)”, the mutagenic call was “inactive; negative (increase not significant)”.

On to `[Cl][V]([Cl])[Cl]`, for which the mutagenic call under setting [7] is “inactive; negative”; the mutagenic call (Test System: AMES SALMONELLA TYPHIMURIUM, Strain/Indicator: TA98, Metabolic Activation: RAT LIVER S-9, PHENOBARBITAL AND BETA-NAPHTHOFLAVONE, Method: PREINCUBATION) is “inactive; negative”; the mutagenic call under setting [8] is “inactive; negative”; the mutagenic call (Test System: AMES SALMONELLA TYPHIMURIUM, Strain/Indicator: TA100, Metabolic Activation: RAT LIVER S-9, PHENOBARBITAL AND BETA-NAPHTHOFLAVONE, Method: PREINCUBATION) is “inactive; negative”; the mutagenic call under setting [9] was “inactive; negative”; the mutagenic call (Test System: AMES SALMONELLA TYPHIMURIUM, Strain/Indicator: TA1535, Metabolic Activation: RAT LIVER S-9, PHENOBARBITAL AND BETA-NAPHTHOFLAVONE, Method: PREINCUBATION) was “inactive; negative”. For the same compound, the mutagenic call reads like this: under setting [10], “inactive; negative”; (Test System: AMES SALMONELLA TYPHIMURIUM, Strain/Indicator: TA1537, Metabolic Activation: RAT LIVER S-9, PHENOBARBITAL AND BETA-NAPHTHOFLAVONE, Method: PREINCUBATION) “inactive; negative”; under setting [11], “inactive; negative”; (Test System: AMES SALMONELLA TYPHIMURIUM, Strain/Indicator: TA1538, Metabolic Activation: RAT LIVER S-9, PHENOBARBITAL AND BETA-NAPHTHOFLAVONE, Method: PREINCUBATION) “inactive; negative”; (Test System: E.COLI, Strain/Indicator: WP2UVRA, Metabolic Activation: NONE, Method: PREINCUBATION) “inactive; negative”; (Test System: E.COLI, Strain/Indicator: WP2UVRA, Metabolic Activation: RAT LIVER S-9, PHENOBARBITAL AND BETA-NAPHTHOFLAVONE, Method: PREINCUBATION) “inactive; negative”.

Turning to `CNC(=C[N+](=O)[O-])NCCSCc1ccc(CN(C)C)o1`, the mutagenic call is, setting by setting: (Test System: AMES SALMONELLA TYPHIMURIUM, Strain/Indicator: TA92, Metabolic Activation: NONE, Method: PREINCUBATION) “inactive; negative”; (Test System: AMES SALMONELLA TYPHIMURIUM, Strain/Indicator: TA92, Metabolic Activation: RAT, LIVER, S-9, PHENOBARBITAL AND 5,6-BENZOFLAVONE, Method: PREINCUBATION) “inactive; negative”; (Test System: AMES SALMONELLA TYPHIMURIUM, Strain/Indicator: TA94, Metabolic Activation: NONE, Method: PREINCUBATION) “inactive; negative”; (Test System: AMES SALMONELLA TYPHIMURIUM, Strain/Indicator: TA94, Metabolic Activation: RAT, LIVER, S-9, PHENOBARBITAL AND 5,6-BENZOFLAVONE, Method: PREINCUBATION) “inactive; negative”; under setting [7], “inactive; negative”; (Test System: AMES SALMONELLA TYPHIMURIUM, Strain/Indicator: TA98, Metabolic Activation: RAT, LIVER, S-9, PHENOBARBITAL AND 5,6-BENZOFLAVONE, Method: PREINCUBATION) “inactive; negative”. In addition, the mutagenic call under setting [8] was “inactive; negative”; the mutagenic call (Test System: AMES SALMONELLA TYPHIMURIUM, Strain/Indicator: TA100, Metabolic Activation: RAT, LIVER, S-9, PHENOBARBITAL AND 5,6-BENZOFLAVONE, Method: PREINCUBATION) was “inactive; negative”; the mutagenic call under setting [9] is “inactive; negative”; the mutagenic call (Test System: AMES SALMONELLA TYPHIMURIUM, Strain/Indicator: TA1535, Metabolic Activation: RAT, LIVER, S-9, PHENOBARBITAL AND 5,6-BENZOFLAVONE, Method: PREINCUBATION) is “inactive; negative”; the mutagenic call under setting [10] was “inactive; negative”; the mutagenic call (Test System: AMES SALMONELLA TYPHIMURIUM, Strain/Indicator: TA1537, Metabolic Activation: RAT, LIVER, S-9, PHENOBARBITAL AND 5,6-BENZOFLAVONE, Method: PREINCUBATION) is “inactive; negative”. Further, the mutagenic call under setting [11] was “inactive; negative”; the mutagenic call (Test System: AMES SALMONELLA TYPHIMURIUM, Strain/Indicator: TA1538, Metabolic Activation: RAT, LIVER, S-9, PHENOBARBITAL AND 5,6-BENZOFLAVONE, Method: PREINCUBATION) was “inactive; negative”; the mutagenic call (Test System: E. COLI, Strain/Indicator: WP2 UVRA, Metabolic Activation: NONE, Method: PREINCUBATION) is “inactive; negative”; the mutagenic call (Test System: E. COLI, Strain/Indicator: WP2 UVRA, Metabolic Activation: RAT, LIVER, S-9, PHENOBARBITAL AND 5,6-BENZOFLAVONE, Method: PREINCUBATION) is “inactive; negative”.

Take `CC(=O)[O][Sn]([c]1ccccc1)([c]1ccccc1)[c]1ccccc1`: the mutagenic call (End Point: IN VIVO MICRONUCLEUS, Test System: BONE MARROW POLYCHROMATIC ERYTHROCYTES, Species: MOUSE, Strain/Sex: SWISS/MALE, FEMALE, Route: IP 2X IN AQUEOUS SUSPENSION WITHIN 24 HR) is “active; positive”.

On to `O=S(=O)(O)OCc1c2ccccc2c2ccc3cccc4ccc1c2c43`, for which the mutagenic call by setting is: under setting [7], “active; positive”; under setting [1], “active; positive”; under setting [8], “active; positive”; (Test System: CHINESE HAMSTER V-79, Strain/Indicator: V-79 (HGPRT)/6-THIOGUANINE, Metabolic Activation: NONE) “active; positive”; (Test System: CHINESE HAMSTER V-79, Strain/Indicator: V-79 (NA/K-ATPASE)/OUABAIN, Metabolic Activation: NONE) “active; positive”.

Take `O=C(O)[C@@H]1CS[C@H](c2ccccc2O)N1C(=O)CCSSCCC(=O)N1[C@@H](c2ccccc2O)SC[C@H]1C(=O)O`: the mutagenic call runs as follows: under setting [1], “inactive; negative”; under setting [2], “inactive; negative”; under setting [3], “inactive; negative”; under setting [4], “inactive; negative”; under setting [5], “inactive; negative”; under setting [6], “inactive; negative”. In addition, for the setting “Test System: E. COLI, Strain/Indicator: WP2 UVRA, Metabolic Activation: NONE, Method: STANDARD PLATE”, the mutagenic call was “inactive; negative”.
